Experiments:
[1] = target: T1, PIK3CD/PIK3R1 (p110 delta/p85 alpha) (Homo sapiens, UniProt O00329); experiment: Kinase screening service: PIK3CD/PIK3R1; type: biochemical; settings: average of duplicates
T1 construct: purchased Life Technologies Corporation (Kinase Screening Service)
Experimental: (§1) The inhibitory effect of PT109 on other kinases including SGK and JNK was detected by the Kinase Screening Service of Life Technologies Corporation (The concentration of compound 9 was 10 μM, measurements were performed in duplicates, and the value was represented by an average) to investigate the selectivity of the compound for JNK and SGK1.

CSNK1A1 (CK1 alpha 1) = target: T2, CSNK1A1 (CK1 alpha 1) (Homo sapiens, UniProt P48729); experiment: Kinase screening service: CSNK1A1; type: biochemical; settings: average of duplicates
T2 construct: purchased Life Technologies Corporation (Kinase Screening Service)
Experimental: as §1

PRKCI (PKC iota) = target: T3, PRKCI (PKC iota) (Homo sapiens, UniProt P41743); experiment: Kinase screening service: PRKCI; type: biochemical; settings: average of duplicates
T3 construct: purchased Life Technologies Corporation (Kinase Screening Service)
Experimental: as §1

PRKCA (PKC alpha) = target: T4, PRKCA (PKC alpha) (Homo sapiens, UniProt P17252); experiment: Kinase screening service: PRKCA; type: biochemical; settings: average of duplicates
T4 construct: purchased Life Technologies Corporation (Kinase Screening Service)
Experimental: as §1

[2] = target: T5, PIK3CA/PIK3R1 (p110 alpha/p85 alpha) (Homo sapiens, UniProt P42336); experiment: Kinase screening service: PIK3CA/PIK3R1; type: biochemical; settings: average of duplicates
T5 construct: purchased Life Technologies Corporation (Kinase Screening Service)
Experimental: as §1

GRK5 = target: T6, GRK5 (Homo sapiens, UniProt P34947); experiment: Kinase screening service: GRK5; type: biochemical; settings: average of duplicates
T6 construct: purchased Life Technologies Corporation (Kinase Screening Service)
Experimental: as §1

[3] = In vitro blood-brain barrier permeability (PBL artificial membrane); type: in vitro ADME
Experimental: 1) 4 μL of 2% PBL solution was added to the hydrophobic membrane of a MAIPn 4550 96-well plate. During the dripping process, it should be noted that the pipette tip should not touch the surface of the membrane to avoid the damage to the membrane structure.
2) 200 μL of the test sample solution (0.1 mg/ml) was quickly (within 10 min) and quantitatively pipetted, and added to the upside of the membrane of the 96-well plate as a donor compartment. 200 μL of PBS (pH=7.4) was added to the other side of the membrane as an acceptor compartment. It should be noted that the acceptor solution should keep being in full contact with the membrane.
3) The donor compartment was carefully removed upon standing for 120 min at room temperature, and the absorbance of the compound (250-500 nm) in the acceptor compartment was tested by UV spectrometer.
4) 100 μL of the test sample solution was fully mixed with 100 μL of PBS, and the mixture was used as a theoretical equilibrium solution. Its absorbance (250-500 nm) was measured and tested with an acceptor plate.
5) The log Pe value was calculated by the following equation: […]
wherein Vd is the volume of the donor compartment, Va is the volume of the acceptor compartment, A is the membrane area, t is the penetration time, [drug]acceptor is the absorbance of the acceptor compartment, and [drug]equilibrium is the absorbance of theoretical equilibrium. […]

MAP3K2 (MEKK2) = target: T7, MAP3K2 (MEKK2) (Homo sapiens, UniProt Q9Y2U5); experiment: Kinase screening service: MAP3K2; type: biochemical; settings: average of duplicates
T7 construct: purchased Life Technologies Corporation (Kinase Screening Service)
Experimental: as §1

DYRK1A = target: T8, DYRK1A (Homo sapiens, UniProt Q13627); experiment: Kinase screening service: DYRK1A; type: biochemical; settings: average of duplicates
T8 construct: purchased Life Technologies Corporation (Kinase Screening Service)
Experimental: as §1

PIK3CG (p110 gamma) = target: T9, PIK3CG (p110 gamma) (Homo sapiens, UniProt P48736); experiment: Kinase screening service: PIK3CG; type: biochemical; settings: average of duplicates
T9 construct: purchased Life Technologies Corporation (Kinase Screening Service)
Experimental: as §1

PI4KB (PI4K beta) = target: T10, PI4KB (PI4K beta) (Homo sapiens, UniProt Q9UBF8); experiment: Kinase screening service: PI4KB; type: biochemical; settings: average of duplicates
T10 construct: purchased Life Technologies Corporation (Kinase Screening Service)
Experimental: as §1

MAP3K5 (ASK1) = target: T11, MAP3K5 (ASK1) (Homo sapiens, UniProt Q99683); experiment: Kinase screening service: MAP3K5; type: biochemical; settings: average of duplicates
T11 construct: purchased Life Technologies Corporation (Kinase Screening Service)
Experimental: as §1

SRMS (Srm) = target: T12, SRMS (Srm) (Homo sapiens, UniProt Q9H3Y6); experiment: Kinase screening service: SRMS; type: biochemical; settings: average of duplicates
T12 construct: purchased Life Technologies Corporation (Kinase Screening Service)
Experimental: as §1

MAP3K3 (MEKK3) = target: T13, MAP3K3 (MEKK3) (Homo sapiens, UniProt Q99759); experiment: Kinase screening service: MAP3K3; type: biochemical; settings: average of duplicates
T13 construct: purchased Life Technologies Corporation (Kinase Screening Service)
Experimental: as §1

CSNK1G1 (CK1 gamma 1) = target: T14, CSNK1G1 (CK1 gamma 1) (Homo sapiens, UniProt Q9HCP0); experiment: Kinase screening service: CSNK1G1; type: biochemical; settings: average of duplicates
T14 construct: purchased Life Technologies Corporation (Kinase Screening Service)
Experimental: as §1

CDK5/p25 = target: T15, CDK5/p25 (Homo sapiens, UniProt Q00535); experiment: Kinase screening service: CDK5/p25; type: biochemical; settings: average of duplicates
T15 construct: purchased Life Technologies Corporation (Kinase Screening Service)
Experimental: as §1

[4] = target: T16, MAP2K1 (MEK1) S218D S222D (Homo sapiens, UniProt Q02750, S218D/S222D); experiment: Kinase screening service: MAP2K1 S218D S222D; type: biochemical; settings: average of duplicates
T16 construct: purchased Life Technologies Corporation (Kinase Screening Service)
Experimental: as §1

CDK5/p35 = target: T17, CDK5/p35 (Homo sapiens, UniProt Q00535); experiment: Kinase screening service: CDK5/p35; type: biochemical; settings: average of duplicates
T17 construct: purchased Life Technologies Corporation (Kinase Screening Service)
Experimental: as §1

FGFR4 = target: T18, FGFR4 (Homo sapiens, UniProt P22455); experiment: Kinase screening service: FGFR4; type: biochemical; settings: average of duplicates
T18 construct: purchased Life Technologies Corporation (Kinase Screening Service)
Experimental: as §1

PRKCB1 (PKC beta I) = target: T19, PRKCB1 (PKC beta I) (Homo sapiens, UniProt P05771); experiment: Kinase screening service: PRKCB1; type: biochemical; settings: average of duplicates
T19 construct: purchased Life Technologies Corporation (Kinase Screening Service)
Experimental: as §1

WNK2 = target: T20, WNK2 (Homo sapiens, UniProt Q9Y3S1); experiment: Kinase screening service: WNK2; type: biochemical; settings: average of duplicates
T20 construct: purchased Life Technologies Corporation (Kinase Screening Service)
Experimental: as §1

EGFR (ErbB1) = target: T21, EGFR (ErbB1) (Homo sapiens, UniProt P00533); experiment: Kinase screening service: EGFR; type: biochemical; settings: average of duplicates
T21 construct: purchased Life Technologies Corporation (Kinase Screening Service)
Experimental: as §1

AKT1 (PKB alpha) = target: T22, AKT1 (PKB alpha) (Homo sapiens, UniProt P31749); experiment: Kinase screening service: AKT1; type: biochemical; settings: average of duplicates
T22 construct: purchased Life Technologies Corporation (Kinase Screening Service)
Experimental: as §1

CSNK2A1 (CK2 alpha 1) = target: T23, CSNK2A1 (CK2 alpha 1) (Homo sapiens, UniProt P68400); experiment: Kinase screening service: CSNK2A1; type: biochemical; settings: average of duplicates
T23 construct: purchased Life Technologies Corporation (Kinase Screening Service)
Experimental: as §1

MYO3B (MYO3 beta) = target: T24, MYO3B (MYO3 beta) (Homo sapiens, UniProt Q8WXR4); experiment: Kinase screening service: MYO3B; type: biochemical; settings: average of duplicates
T24 construct: purchased Life Technologies Corporation (Kinase Screening Service)
Experimental: as §1

AKT2 (PKB beta) = target: T25, AKT2 (PKB beta) (Homo sapiens, UniProt P31751); experiment: Kinase screening service: AKT2; type: biochemical; settings: average of duplicates
T25 construct: purchased Life Technologies Corporation (Kinase Screening Service)
Experimental: as §1

AURKC (Aurora C) = target: T26, AURKC (Aurora C) (Homo sapiens, UniProt Q9UQB9); experiment: Kinase screening service: AURKC; type: biochemical; settings: average of duplicates
T26 construct: purchased Life Technologies Corporation (Kinase Screening Service)
Experimental: as §1

MST1R (RON) = target: T27, MST1R (RON) (Homo sapiens, UniProt Q04912); experiment: Kinase screening service: MST1R; type: biochemical; settings: average of duplicates
T27 construct: purchased Life Technologies Corporation (Kinase Screening Service)
Experimental: as §1

NEK7 = target: T28, NEK7 (Homo sapiens, UniProt Q8TDX7); experiment: Kinase screening service: NEK7; type: biochemical; settings: average of duplicates
T28 construct: purchased Life Technologies Corporation (Kinase Screening Service)
Experimental: as §1

T3 sequence (P41743 whole entry): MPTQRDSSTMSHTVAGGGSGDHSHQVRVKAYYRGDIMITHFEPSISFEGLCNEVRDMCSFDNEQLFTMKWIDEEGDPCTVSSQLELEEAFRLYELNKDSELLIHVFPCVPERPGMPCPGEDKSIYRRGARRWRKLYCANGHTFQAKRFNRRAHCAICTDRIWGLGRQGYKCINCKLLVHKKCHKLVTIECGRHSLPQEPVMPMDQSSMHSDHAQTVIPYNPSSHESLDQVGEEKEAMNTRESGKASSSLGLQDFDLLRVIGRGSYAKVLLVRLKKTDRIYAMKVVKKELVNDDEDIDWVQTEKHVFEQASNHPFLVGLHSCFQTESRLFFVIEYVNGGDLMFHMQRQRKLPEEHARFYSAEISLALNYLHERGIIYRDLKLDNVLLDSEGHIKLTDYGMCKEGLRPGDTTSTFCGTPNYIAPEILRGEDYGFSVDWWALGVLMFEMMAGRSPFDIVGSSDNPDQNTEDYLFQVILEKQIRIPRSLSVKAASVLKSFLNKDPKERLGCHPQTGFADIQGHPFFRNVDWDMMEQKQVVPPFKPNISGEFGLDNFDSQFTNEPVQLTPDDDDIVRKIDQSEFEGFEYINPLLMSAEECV
T28 sequence (Q8TDX7 whole entry): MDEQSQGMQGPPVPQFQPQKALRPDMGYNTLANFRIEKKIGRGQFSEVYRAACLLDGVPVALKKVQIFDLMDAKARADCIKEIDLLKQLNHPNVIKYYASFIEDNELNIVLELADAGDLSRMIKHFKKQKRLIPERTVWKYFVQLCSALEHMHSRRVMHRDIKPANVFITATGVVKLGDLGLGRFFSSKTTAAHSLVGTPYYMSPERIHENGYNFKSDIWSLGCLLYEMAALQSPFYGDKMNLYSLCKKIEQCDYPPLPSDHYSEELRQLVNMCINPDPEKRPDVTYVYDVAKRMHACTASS
T27 sequence (Q04912 25-1400): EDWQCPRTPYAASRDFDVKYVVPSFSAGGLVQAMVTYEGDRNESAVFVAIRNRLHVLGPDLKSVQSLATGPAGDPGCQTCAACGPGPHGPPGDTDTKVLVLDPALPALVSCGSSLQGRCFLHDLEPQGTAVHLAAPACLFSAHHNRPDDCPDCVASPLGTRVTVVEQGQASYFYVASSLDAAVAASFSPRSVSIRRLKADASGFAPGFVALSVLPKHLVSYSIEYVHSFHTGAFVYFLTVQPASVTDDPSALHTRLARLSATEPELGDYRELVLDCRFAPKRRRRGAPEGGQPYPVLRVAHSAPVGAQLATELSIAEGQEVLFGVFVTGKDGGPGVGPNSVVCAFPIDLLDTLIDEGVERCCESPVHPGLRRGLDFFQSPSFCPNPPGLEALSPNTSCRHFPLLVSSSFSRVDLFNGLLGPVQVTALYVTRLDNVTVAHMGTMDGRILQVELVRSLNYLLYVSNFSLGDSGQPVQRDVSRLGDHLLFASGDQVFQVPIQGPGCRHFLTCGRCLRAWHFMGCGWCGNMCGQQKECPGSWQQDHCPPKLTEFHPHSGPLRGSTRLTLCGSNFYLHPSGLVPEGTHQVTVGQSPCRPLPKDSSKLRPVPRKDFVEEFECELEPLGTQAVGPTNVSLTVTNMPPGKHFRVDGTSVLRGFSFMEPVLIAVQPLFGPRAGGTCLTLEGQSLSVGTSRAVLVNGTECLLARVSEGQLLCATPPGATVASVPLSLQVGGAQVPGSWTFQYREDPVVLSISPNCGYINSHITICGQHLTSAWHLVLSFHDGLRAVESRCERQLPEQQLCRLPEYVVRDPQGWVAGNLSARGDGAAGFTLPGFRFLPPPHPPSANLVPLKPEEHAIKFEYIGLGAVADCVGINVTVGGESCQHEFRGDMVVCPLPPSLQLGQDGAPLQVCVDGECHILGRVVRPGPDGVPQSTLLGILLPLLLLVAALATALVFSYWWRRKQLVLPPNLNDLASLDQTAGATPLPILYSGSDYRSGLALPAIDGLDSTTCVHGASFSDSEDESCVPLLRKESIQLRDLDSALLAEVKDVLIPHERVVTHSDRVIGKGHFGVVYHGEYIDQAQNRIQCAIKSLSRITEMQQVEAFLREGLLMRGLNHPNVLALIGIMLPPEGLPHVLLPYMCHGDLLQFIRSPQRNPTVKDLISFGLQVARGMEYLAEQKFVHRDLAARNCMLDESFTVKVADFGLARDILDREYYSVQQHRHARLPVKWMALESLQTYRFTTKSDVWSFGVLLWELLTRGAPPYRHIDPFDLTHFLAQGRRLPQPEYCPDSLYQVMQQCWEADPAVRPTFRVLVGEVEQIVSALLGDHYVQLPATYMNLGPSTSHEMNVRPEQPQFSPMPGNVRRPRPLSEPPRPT
T1 sequence (O00329 whole entry): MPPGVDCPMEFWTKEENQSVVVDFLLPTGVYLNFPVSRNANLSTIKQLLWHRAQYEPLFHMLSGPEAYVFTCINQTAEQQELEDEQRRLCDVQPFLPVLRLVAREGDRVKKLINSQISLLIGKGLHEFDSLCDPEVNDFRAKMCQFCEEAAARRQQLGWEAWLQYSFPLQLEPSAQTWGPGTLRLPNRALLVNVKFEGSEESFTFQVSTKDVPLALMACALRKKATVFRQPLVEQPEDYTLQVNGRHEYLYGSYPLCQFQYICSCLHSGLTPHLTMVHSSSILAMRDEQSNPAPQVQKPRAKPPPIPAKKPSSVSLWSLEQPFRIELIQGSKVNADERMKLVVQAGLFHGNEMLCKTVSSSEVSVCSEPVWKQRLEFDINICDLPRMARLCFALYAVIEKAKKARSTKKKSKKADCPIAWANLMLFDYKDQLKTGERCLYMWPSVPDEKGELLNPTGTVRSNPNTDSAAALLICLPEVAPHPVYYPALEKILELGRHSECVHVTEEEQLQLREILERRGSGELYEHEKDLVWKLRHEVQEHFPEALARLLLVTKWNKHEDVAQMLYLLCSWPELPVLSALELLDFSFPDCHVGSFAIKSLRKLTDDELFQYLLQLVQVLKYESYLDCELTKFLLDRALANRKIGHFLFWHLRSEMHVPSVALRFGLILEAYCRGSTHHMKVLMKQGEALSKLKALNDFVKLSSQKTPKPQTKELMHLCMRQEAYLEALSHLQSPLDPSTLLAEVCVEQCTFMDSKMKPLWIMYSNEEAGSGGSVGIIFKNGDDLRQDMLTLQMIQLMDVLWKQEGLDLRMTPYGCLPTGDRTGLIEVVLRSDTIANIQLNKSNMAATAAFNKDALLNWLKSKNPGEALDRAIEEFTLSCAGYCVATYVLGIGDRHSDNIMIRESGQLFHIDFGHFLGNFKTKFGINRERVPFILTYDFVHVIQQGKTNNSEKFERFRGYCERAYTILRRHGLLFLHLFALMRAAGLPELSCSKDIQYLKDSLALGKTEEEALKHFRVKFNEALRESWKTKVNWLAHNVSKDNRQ
T1 sequence (P27986 whole entry partner): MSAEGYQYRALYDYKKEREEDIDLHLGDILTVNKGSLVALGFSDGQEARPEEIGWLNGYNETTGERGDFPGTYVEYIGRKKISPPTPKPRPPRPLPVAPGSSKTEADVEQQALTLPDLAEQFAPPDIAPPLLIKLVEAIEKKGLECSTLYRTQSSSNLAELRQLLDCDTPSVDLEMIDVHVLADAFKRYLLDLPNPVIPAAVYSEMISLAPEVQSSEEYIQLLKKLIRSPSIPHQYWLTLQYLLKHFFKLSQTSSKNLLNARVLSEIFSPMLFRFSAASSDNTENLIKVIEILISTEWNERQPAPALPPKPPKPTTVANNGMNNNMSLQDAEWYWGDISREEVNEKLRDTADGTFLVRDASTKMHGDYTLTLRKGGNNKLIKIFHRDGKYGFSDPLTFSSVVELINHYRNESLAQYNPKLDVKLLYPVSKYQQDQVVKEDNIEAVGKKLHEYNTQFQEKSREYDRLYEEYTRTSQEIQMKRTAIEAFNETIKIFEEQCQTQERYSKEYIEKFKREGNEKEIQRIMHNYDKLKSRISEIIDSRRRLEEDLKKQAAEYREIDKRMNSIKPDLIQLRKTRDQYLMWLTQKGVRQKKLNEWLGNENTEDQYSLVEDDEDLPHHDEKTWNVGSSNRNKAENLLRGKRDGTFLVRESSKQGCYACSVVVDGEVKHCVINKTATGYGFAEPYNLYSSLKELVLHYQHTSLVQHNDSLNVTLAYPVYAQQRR
T10 sequence (Q9UBF8 whole entry): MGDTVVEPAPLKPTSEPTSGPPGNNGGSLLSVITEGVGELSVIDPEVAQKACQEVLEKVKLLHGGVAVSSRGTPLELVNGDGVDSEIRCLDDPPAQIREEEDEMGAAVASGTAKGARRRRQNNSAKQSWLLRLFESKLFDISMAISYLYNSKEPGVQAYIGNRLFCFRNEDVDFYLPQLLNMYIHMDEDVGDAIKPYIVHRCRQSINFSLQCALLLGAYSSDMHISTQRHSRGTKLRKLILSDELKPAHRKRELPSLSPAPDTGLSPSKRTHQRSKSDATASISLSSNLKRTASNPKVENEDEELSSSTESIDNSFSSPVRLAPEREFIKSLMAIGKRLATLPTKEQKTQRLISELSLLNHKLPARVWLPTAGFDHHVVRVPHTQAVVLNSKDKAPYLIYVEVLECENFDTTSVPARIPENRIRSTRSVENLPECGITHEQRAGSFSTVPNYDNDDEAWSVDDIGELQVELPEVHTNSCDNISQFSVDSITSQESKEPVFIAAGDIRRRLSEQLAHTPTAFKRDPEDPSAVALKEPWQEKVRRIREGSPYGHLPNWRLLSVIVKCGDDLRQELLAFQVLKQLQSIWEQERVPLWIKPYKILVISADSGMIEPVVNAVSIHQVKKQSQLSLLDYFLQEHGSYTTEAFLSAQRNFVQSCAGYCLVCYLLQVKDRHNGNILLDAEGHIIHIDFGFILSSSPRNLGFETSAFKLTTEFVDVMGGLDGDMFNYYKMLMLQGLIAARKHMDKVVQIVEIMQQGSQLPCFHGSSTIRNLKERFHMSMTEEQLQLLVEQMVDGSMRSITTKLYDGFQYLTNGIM

## O=C(CCCCC1CCSS1)NC1CCC(Nc2cccc3cnccc23)CC1 (stereo not drawn) [PT109, 5-(1,2-dithiolan-3-yl)-N-(4-(isoquinolin-5-ylamino)cyclohexyl) pentanamide]
[1]
  inhibition at 10 µM: 48%
CSNK1A1 (CK1 alpha 1)
  inhibition at 10 µM: 3%
PRKCI (PKC iota)
  inhibition at 10 µM: -14%
PRKCA (PKC alpha)
  inhibition at 10 µM: 25%
[2]
  inhibition at 10 µM: 56%
GRK5
  inhibition at 10 µM: 2%
[3]; PAMPA, PBL membrane, PBS pH=7.4, 120 min, room temperature, read-out: Pe
  Papp at 120 min, 0.1 mg/ml: 11.93 ± 0.08 ×10⁻⁶ cm/s
[3]; from Pe
  Prediction: CNS+ (If Pe×10^−6 cm s^−1 value is greater than 5.3, the compound is able to cross the blood-brain barrier)
MAP3K2 (MEKK2)
  inhibition at 10 µM: 10%
DYRK1A
  inhibition at 10 µM: 16%
PIK3CG (p110 gamma)
  inhibition at 10 µM: 9%
PI4KB (PI4K beta)
  inhibition at 10 µM: 39%
MAP3K5 (ASK1)
  inhibition at 10 µM: 9%
SRMS (Srm)
  inhibition at 10 µM: 20%
MAP3K3 (MEKK3)
  inhibition at 10 µM: 3%
CSNK1G1 (CK1 gamma 1)
  inhibition at 10 µM: 9%
CDK5/p25
  inhibition at 10 µM: 18%
[4]
  inhibition at 10 µM: 13%
CDK5/p35
  inhibition at 10 µM: 26%
FGFR4
  inhibition at 10 µM: -2%
PRKCB1 (PKC beta I)
  inhibition at 10 µM: -10%
WNK2
  inhibition at 10 µM: 13%
EGFR (ErbB1)
  inhibition at 10 µM: -6%
AKT1 (PKB alpha)
  inhibition at 10 µM: 22%
CSNK2A1 (CK2 alpha 1)
  inhibition at 10 µM: 14%
MYO3B (MYO3 beta)
  inhibition at 10 µM: 43%
AKT2 (PKB beta)
  inhibition at 10 µM: 30%
AURKC (Aurora C)
  inhibition at 10 µM: 5%
MST1R (RON)
  inhibition at 10 µM: 35%
NEK7
  inhibition at 10 µM: 2%

Reference: patent publication US10723724B2, “Compounds for treating degenerative diseases of central nervous system or brain tumor, and uses thereof” (SUN YAT-SEN UNIVERSITY, priority 2016, dated 2020)
